pKi: −log10 of the molar value.

This is an account of results in BindingDB's records for doi:10.1016/j.bmcl.2007.10.088 (University of Minnesota Minneapolis, 2008).

The assay concerns the target Bcl-xL (Homo sapiens). Briefly: Inhibition of Bak peptide binding to human recombinant Bcl-Xl.
What is called pKi is the negative decadic logarithm of the Ki, by convention in mol/L. With `CCOC(=O)[C@H](Cc1ccccc1)N1C(=O)/C(=C/c2ccc(OCOc3ccc(/C=C4\SC(=S)N([C@@H](Cc5ccccc5)C(=O)OCC)C4=O)cc3)cc2)SC1=S`, the pKi is 4.23.
In the case of `O=C(OCCOC(=O)[C@H](Cc1ccccc1)N1C(=O)/C(=C/c2ccc(Br)cc2)SC1=S)[C@H](Cc1ccccc1)N1C(=O)/C(=C/c2ccc(Br)cc2)SC1=S` it was 3.87.
To `O=C(O)[C@H](Cc1ccccc1)N1C(=O)/C(=C/c2ccc(OCCOc3ccc(/C=C4\SC(=S)N([C@@H](Cc5ccccc5)C(=O)O)C4=O)cc3)cc2)SC1=S` belongs 6.01.
